The values below come from PubChem BioAssay (NCI).

Among the test systems are PC-3 prostate; NCI/ADR-RES ovarian; MOLT-4 leukemia; UACC-257 melanoma; SNB-75 CNS; SNB-19 CNS; LOX IMVI melanoma; T-47D breast; HT29 colon; ACHN renal.
Assay in all cases: inhibition of tumour cell growth, NCI panel, 48 h

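Assay format: 96-well plates, 48-hour exposure. GI50 is the concentration that inhibits growth by half. TGI is the concentration that stops growth completely.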 Bounds are passed on as bounds.

Take `CCN(CC)CCOc1ccc(/C=C2\CC3C4CC=C5C[C@@H](N6CCCC6)CC[C@]5(C)C4CC[C@]3(C)[C@H]2O)cc1OC` (some centres undefined): the GI50 was 4.66 µM in the assay with PC-3 prostate; 13.3 µM in the assay on NCI/ADR-RES ovarian; 2.2 µM in the assay on MOLT-4 leukemia; 6.82 µM in the assay with UACC-257 melanoma; 14.6 µM with SNB-75 CNS; 6.2 µM in the assay with SNB-19 CNS. Further, the GI50 in the assay on LOX IMVI melanoma was 1.92 µM; in the assay with T-47D breast, 7.75 µM; with HT29 colon it was 2.39 µM; with ACHN renal, 5.94 µM. Moreover, the TGI was 45.3 µM in the assay with PC-3 prostate; 47.5 µM in the assay on NCI/ADR-RES ovarian; over 21.6 µM with MOLT-4 leukemia; 14.9 µM with UACC-257 melanoma; over 69.4 µM in the assay with SNB-75 CNS; over 63.5 µM in the assay with SNB-19 CNS. Further, the TGI in the assay on LOX IMVI melanoma was 5.28 µM; in the assay with T-47D breast, 22.6 µM; in the assay with HT29 colon it was over 100 µM; with ACHN renal, 26.2 µM.
For the compound `C[C@]12CCC(=O)C(O)=C1CC[C@@H]1[C@@H]2CC[C@]2(C)C(=O)CC[C@@H]12`, the TGI with PC-3 prostate, in the assay on NCI/ADR-RES ovarian, in the assay with MOLT-4 leukemia, in the assay on UACC-257 melanoma, with SNB-75 CNS and in the assay with SNB-19 CNS was over 100 µM each time. Also, the TGI in the assay with LOX IMVI melanoma, with T-47D breast, in the assay on HT29 colon and in the assay on ACHN renal was over 100 µM throughout.
Regarding `CC(=O)N1c2ccccc2Sc2cc(C(O)(C(F)(F)F)C(F)(F)F)ccc21`, the TGI in the assay on PC-3 prostate, with NCI/ADR-RES ovarian, in the assay on MOLT-4 leukemia, in the assay on UACC-257 melanoma, in the assay on SNB-75 CNS and in the assay with SNB-19 CNS was over 10 µM each time. In addition, the TGI in the assay with LOX IMVI melanoma, in the assay on T-47D breast, with HT29 colon and with ACHN renal was over 10 µM each time.
Consider `Cc1ccc2c(N)c(C(=O)N[C@H]3CCc4cc(N5CC6CCC(C5)N6)ccc4C3)sc2n1`, for which the GI50 was 0.676 µM with PC-3 prostate; 0.798 µM in the assay with NCI/ADR-RES ovarian; 0.174 µM with MOLT-4 leukemia; 0.501 µM in the assay with UACC-257 melanoma; 0.355 µM with SNB-75 CNS; 0.325 µM in the assay with SNB-19 CNS. Besides, the GI50 in the assay on LOX IMVI melanoma was 0.0761 µM; with T-47D breast, 0.497 µM; in the assay with HT29 colon, 0.257 µM; in the assay with ACHN renal, 0.158 µM. Further, the TGI in the assay on NCI/ADR-RES ovarian is 2.76 µM; in the assay with MOLT-4 leukemia, 4.49 µM; in the assay with UACC-257 melanoma it was 2.84 µM; in the assay with SNB-75 CNS it was 2.83 µM; with SNB-19 CNS it was 2.49 µM; with LOX IMVI melanoma it was 0.405 µM. For the same compound, the results for the TGI with T-47D breast, in the assay with HT29 colon and in the assay with ACHN renal were 3.55 µM, 3.22 µM and 2.01 µM, respectively.
Regarding `CCOC(=O)Oc1c(OC)cc(C(=O)O[C@@H]2C[C@@H]3CN4CCc5c([nH]c6cc(OC)ccc56)[C@H]4C[C@@H]3[C@H](C(=O)OC)[C@H]2OC)cc1OC`, the GI50 in the assay with PC-3 prostate was 4.92 µM; in the assay on NCI/ADR-RES ovarian it was 4.37 µM; in the assay on MOLT-4 leukemia it was 4.04 µM; with UACC-257 melanoma, 12.4 µM; with SNB-75 CNS it was 6.64 µM; in the assay with SNB-19 CNS, 5.04 µM. For the same compound, the GI50 in the assay with LOX IMVI melanoma is 2.91 µM; in the assay with T-47D breast, 2.97 µM; with HT29 colon, 2.32 µM; in the assay with ACHN renal it was 4.16 µM. Besides, the TGI with PC-3 prostate turned out to be 33.8 µM; in the assay on NCI/ADR-RES ovarian, 23.3 µM; in the assay on MOLT-4 leukemia, 23.3 µM; in the assay on UACC-257 melanoma it was 30.4 µM; in the assay on SNB-75 CNS, 24.5 µM; in the assay on SNB-19 CNS, 20.9 µM. For the same compound, the TGI with LOX IMVI melanoma worked out at 14.7 µM; in the assay with T-47D breast, 20.1 µM; in the assay on HT29 colon it was 5.92 µM; in the assay with ACHN renal, 21.7 µM.
For `Cc1[nH]c(/C=C2\C(=O)Nc3ccc(F)cc32)c(C)c1C(=O)NC[C@H](O)CN1CCOCC1`, the GI50 was 2.64 µM in the assay with PC-3 prostate; over 10 µM in the assay with NCI/ADR-RES ovarian; 2.61 µM in the assay with MOLT-4 leukemia; 8.67 µM in the assay with UACC-257 melanoma; 7.33 µM with SNB-75 CNS; over 10 µM in the assay with SNB-19 CNS. The GI50 with LOX IMVI melanoma is 2.33 µM; in the assay on T-47D breast it was over 10 µM; in the assay on HT29 colon, 2.91 µM; in the assay on ACHN renal, 3.49 µM. The TGI in the assay on PC-3 prostate, in the assay with NCI/ADR-RES ovarian, with MOLT-4 leukemia, in the assay with UACC-257 melanoma, in the assay on SNB-75 CNS and in the assay on SNB-19 CNS was over 10 µM each time. The TGI with LOX IMVI melanoma, in the assay with T-47D breast, in the assay with HT29 colon and with ACHN renal was over 10 µM in each case.
For the compound `C/C=C(\C)C(=O)O[C@H]1C=CC(=O)O[C@H]1CNC(=O)[C@H](C)O`, the GI50 is 24.5 µM in the assay on PC-3 prostate; 26.2 µM in the assay on NCI/ADR-RES ovarian; 21.4 µM in the assay on MOLT-4 leukemia; 17.1 µM with UACC-257 melanoma; 22.3 µM in the assay on SNB-75 CNS; 30.5 µM in the assay on SNB-19 CNS. Also, the GI50 in the assay on LOX IMVI melanoma is 15.9 µM; in the assay on T-47D breast, 20 µM; with HT29 colon, 18.9 µM; in the assay on ACHN renal, 15.7 µM. Besides, the TGI is 79.4 µM in the assay with PC-3 prostate; 81.4 µM in the assay on NCI/ADR-RES ovarian; 46.6 µM in the assay on MOLT-4 leukemia; 37.6 µM with UACC-257 melanoma; 48.8 µM in the assay with SNB-75 CNS; over 100 µM with SNB-19 CNS. Also, the TGI with LOX IMVI melanoma amounted to 30.4 µM; in the assay with T-47D breast, 73.9 µM; in the assay on HT29 colon, 42.6 µM; with ACHN renal it was 29.9 µM.
On to `O=[N+]([O-])/C=C/c1c[nH]c2ccccc12`, for which the GI50 with PC-3 prostate is 24.2 µM; in the assay on NCI/ADR-RES ovarian it was 18.4 µM; in the assay with MOLT-4 leukemia, 13.9 µM; with UACC-257 melanoma, 16.5 µM; in the assay with SNB-75 CNS, 4.45 µM; in the assay with SNB-19 CNS, 18.4 µM. Further, the GI50 in the assay with LOX IMVI melanoma was 15.9 µM; with T-47D breast, 15 µM; in the assay on HT29 colon, 19.5 µM; in the assay on ACHN renal, 17.1 µM. Also, the TGI with PC-3 prostate came out at 64.8 µM; in the assay on NCI/ADR-RES ovarian, 40 µM; in the assay with MOLT-4 leukemia it was 35.5 µM; with UACC-257 melanoma, 30.6 µM; in the assay on SNB-75 CNS, 16.3 µM; in the assay on SNB-19 CNS, 35.4 µM. For the same compound, the TGI in the assay on LOX IMVI melanoma was found to be 30.2 µM; with T-47D breast, 37.7 µM; in the assay with HT29 colon, 38.8 µM; in the assay with ACHN renal, 32.3 µM.
